Assays:
[1] = biological target: T1, A. thaliana Nudx1 (Arabidopsis thaliana, UniProt Q9CA40); test: Phosphatase activity / steady-state kinetics of recombinant AtNudx1 (BIOMOL Green phosphate detection); type: biochemical; details: for Km / kcat: substrate of AtNudx1, 100 mM TAPS pH 8.5, 10 mM MgCl2, 37° C., means ± SD, n = 3
T1 construct: The open reading frames (ORFs) of Arabidopsis Nudix genes were PCR-amplified from cDNA; His8 (N, cleaved yes); made in house; host or cells: E. coli BL21(DE3)
T1 sequence (Q9CA40 whole entry): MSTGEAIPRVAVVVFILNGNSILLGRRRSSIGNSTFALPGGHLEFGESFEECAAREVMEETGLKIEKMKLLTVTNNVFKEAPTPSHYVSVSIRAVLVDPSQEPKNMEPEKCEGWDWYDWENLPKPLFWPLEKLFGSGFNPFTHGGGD
Procedure: (§1) After removal of the cell debris by centrifugation, expressed proteins were purified from the supernatants by immobilized metal-affinity chromatography with HisPur Ni-NTA resin (ThermoFisher Scientific). Pure proteins were eluted with 50 mM Tris-HCL pH 8.0, 0.5 M NaCl buffer supplemented with 250 mM imidazole followed by buffer exchange to 50 mM Tris-HCl pH 8.0 and 0.2 M NaCl for storage. For the crystal screening and steady-state kinetic analysis described below, the N-terminal His8-tags of AtNudx1 and AtNudx3 were removed with thrombin and remaining histidine-tagged protein was removed by passing over HisPur Ni-NTA resin. AtNudx1 and AtNudx3 were further purified by size-exclusion chromatography on a Superdex 200 16/60 column (GE Lifesciences) equilibrated and eluted with 50 mM Tris-HCl pH 8.0 supplemented with 0.2 M NaCl and 2 mM dithiothreitol.
(§2) All enzyme assays described in the present disclosure were performed as follows. Phosphatase activity was monitored at 37° C. using BIOMOL Green reagent (Enzo Life Sciences) to detect and quantify released phosphate at 623 nm using a phosphate standard curve. The optimum pH for activity was determined using a three-component buffer system of 50 mM acetic acid, 50 mM MES, and 100 mM Tris-HCl with 0.1 mM IPP as substrate. Magnesium ion dependence was investigated with 1 mM to 20 mM MgCl2. […] Reactions were initiated by the addition of enzyme and quenched by the addition of BIOMOL Green.
(§3) Controls included assays without enzyme and without substrate. All enzyme assays were performed at an appropriate enzyme concentration so that the reaction velocity was linear and proportional to the enzyme concentration during the incubation time period. Kinetic data was fitted using Prism (GraphPad Software) to the Michaelis-Menten equation to compute KM and kcat. At least triplicate assays were performed for all data points. Resulting Findings and Systems, Methods, and Platforms

[2] = biological target: T2, AtPMK (Arabidopsis thaliana, UniProt Q9C6T1); details: substrate of Arabidopsis PMK (AtPMK, At1g31910); previous characterization; cited from earlier work
T2 sequence (Q9C6T1 1-505): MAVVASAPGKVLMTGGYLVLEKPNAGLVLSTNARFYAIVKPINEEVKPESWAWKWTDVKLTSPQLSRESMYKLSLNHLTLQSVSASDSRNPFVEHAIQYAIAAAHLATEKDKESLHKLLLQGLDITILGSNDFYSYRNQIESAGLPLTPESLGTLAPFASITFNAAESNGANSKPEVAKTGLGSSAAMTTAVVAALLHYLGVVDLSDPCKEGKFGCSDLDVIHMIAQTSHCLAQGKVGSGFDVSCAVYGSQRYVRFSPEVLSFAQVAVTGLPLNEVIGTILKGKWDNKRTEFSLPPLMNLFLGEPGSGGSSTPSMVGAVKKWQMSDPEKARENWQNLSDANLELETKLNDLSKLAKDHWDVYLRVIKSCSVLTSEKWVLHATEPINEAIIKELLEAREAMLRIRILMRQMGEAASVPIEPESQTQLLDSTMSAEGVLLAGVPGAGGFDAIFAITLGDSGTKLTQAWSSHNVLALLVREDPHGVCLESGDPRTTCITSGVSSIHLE

[3] = biological target: T3, A. thaliana Nudx3 (Arabidopsis thaliana, UniProt Q8L831); test: Phosphatase activity / steady-state kinetics of recombinant AtNudx3 (BIOMOL Green phosphate detection); type: biochemical; details: for Km / kcat: substrate of AtNudx3, 100 mM TAPS pH 8.5, 10 mM MgCl2, 37° C., means ± SD, n = 3
T3 construct: His8 (N, cleaved yes); made in house; host or cells: E. coli BL21(DE3)
T3 sequence (Q8L831 1-772): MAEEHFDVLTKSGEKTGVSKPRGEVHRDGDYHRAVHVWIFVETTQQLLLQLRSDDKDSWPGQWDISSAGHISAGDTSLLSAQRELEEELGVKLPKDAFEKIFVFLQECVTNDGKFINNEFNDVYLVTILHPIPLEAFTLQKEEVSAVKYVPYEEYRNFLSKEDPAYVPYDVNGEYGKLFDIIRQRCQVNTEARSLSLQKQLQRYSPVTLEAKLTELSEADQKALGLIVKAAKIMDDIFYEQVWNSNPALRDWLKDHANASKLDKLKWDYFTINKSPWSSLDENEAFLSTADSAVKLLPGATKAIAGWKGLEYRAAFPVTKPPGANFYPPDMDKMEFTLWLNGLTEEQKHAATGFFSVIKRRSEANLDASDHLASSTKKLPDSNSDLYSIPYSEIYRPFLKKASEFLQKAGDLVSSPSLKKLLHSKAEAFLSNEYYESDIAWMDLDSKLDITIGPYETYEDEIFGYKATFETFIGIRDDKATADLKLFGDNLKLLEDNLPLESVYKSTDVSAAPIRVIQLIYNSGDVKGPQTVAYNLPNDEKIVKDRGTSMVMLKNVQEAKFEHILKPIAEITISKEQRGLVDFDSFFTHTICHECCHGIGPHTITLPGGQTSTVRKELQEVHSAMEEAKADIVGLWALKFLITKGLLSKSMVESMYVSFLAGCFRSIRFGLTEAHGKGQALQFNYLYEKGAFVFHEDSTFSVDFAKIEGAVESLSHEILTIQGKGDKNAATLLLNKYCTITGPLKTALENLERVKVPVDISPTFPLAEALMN
Procedure: as §1, §2, §3

[4] = system: FPP synthase; details: cited from earlier work

| phosphatase activity with the compound as substrate ([3]; AtNudx3) | Km [1] | kcat [1] | Km [3] | kcat [3] | Molecule | phosphatase activity with the compound as substrate ([1]; AtNudx1) | also measured |
| --- | --- | --- | --- | --- | --- | --- | --- |
| No phosphatase activity was detected |  |  |  |  | CC(C)=CCOP(=O)(O)O [DMAP, dimethylallyl phosphate] | No phosphatase activity was detected | inhibition of FPP synthase [4]: competitively inhibited |
| No phosphatase activity was detected |  |  |  |  | CC(C)=CCC/C(C)=C/CC/C(C)=C/COP(=O)(O)O [FP, farnesyl phosphate] | No phosphatase activity was detected |  |
|  | 8 ± 0.6 µM | 1.11 ± 0.02 s⁻¹ | 36 ± 8 µM | 5.5 ± 0.3 s⁻¹ | C=C(C)CCOP(=O)(O)OP(=O)(O)O [IPP, isopentenyl diphosphate] |  | fold lower specific activity at pH 6.5 than at the optimal pH of 8.5 ([1]; AtNudx1, IPP as substrate, 37° C.): 7 fold; fold higher catalytic efficiency ([3]; AtNudx3, compared to GPP and FPP as substrates): 3 fold |
|  | 240 ± 60 µM | 0.51 ± 0.06 s⁻¹ | 125 ± 36 µM | 1.5 ± 0.2 s⁻¹ | mevalonate diphosphate [(R)-MVAPP] |  | fold less efficient as a substrate (catalytic efficiency) ([1]; AtNudx1, compared with IPP, DMAPP, GPP and FPP): 100 fold |
| unable to dephosphorylate | 33 ± 2 µM | 4.5 ± 0.1 s⁻¹ |  |  | Nc1nc2c([nH]c(=O)n2[C@H]2C[C@H](O)[C@@H](COP(=O)(O)OP(=O)(O)OP(=O)(O)O)O2)c(=O)[nH]1 [8-oxo-dGTP] |  |  |

| Molecule | phosphatase activity with the compound as substrate ([3]; AtNudx3) | Km [1] | kcat [1] | Km [3] | kcat [3] | phosphatase activity with the compound as substrate ([1]; AtNudx1) | also measured |
| --- | --- | --- | --- | --- | --- | --- | --- |
| C[C@@](O)(CCOP(=O)(O)O)CC(=O)O [MVAP, phosphomevalonate] | No phosphatase activity was detected |  |  |  |  | No phosphatase activity was detected | Km [2]: 12 µM |
| CC(C)=CCC/C(C)=C/COP(=O)(O)O [GP, geranyl phosphate] | No phosphatase activity was detected |  |  |  |  | No phosphatase activity was detected |  |
| CC(C)=CCC/C(C)=C/COP(=O)(O)OP(=O)(O)O [GPP, geranyl diphosphate] |  | 8.3 ± 2.5 µM | 2.0 ± 0.3 s⁻¹ | 53 ± 13 µM | 2.7 ± 0.3 s⁻¹ |  |  |
